Experimental data reported in patent US20240262812A1, “N-SUBSTITUTED PHENYLSULFONAMIDE COMPOUND AND USE THEREOF” (Shanghai Leado Pharmatech Co., Ltd., priority 2021, published 2024).

Key:
[1] = molecular target: T1, mTRPA1 (Mus musculus, UniProt Q8BLA8); experiment: IonWorks Barracuda (IWB) automated patch clamp, TRPA1 inhibitory activity; type: cell-based; settings: HEK293 cells stably expressing mTRPA1, current induced by AITC, amplitude at +100 mV; read-out: IC50 (inhibition activity on TRPA1)
T1 construct: expressed in transfected cells
Method: In this example, the inhibitory activity of the compounds prepared in some examples of the present invention on transient receptor potential channel protein ankyrin 1 (TRPA1) was tested. Among them, compound of formula A (WO2010075353) was used as the positive control compound: […]
Test method using IonWorks Barracuda (IWB) automated patch clamp detection: HEK293 cells stably expressing mTRPA1 were placed in the T175 culture flask with DMEM medium containing 15 µg/mL Blasticidin S HCl, 200 µg/mL Hygromycin B and 10% FBS, and cultured in 37° C., 5% CO2 incubator. When the cell density reached about 80%, the culture medium was removed, washed once with phosphate buffered saline (PBS) without calcium and magnesium. 3 mL of Trypsin was added to digest for 2 min, 7 mL of culture solution was added to terminate the digestion. The cells were collected to 15 mL centrifuge tube and centrifuged at 800 rpm for 3 min. After the supernatant was removed, the cells were added to appropriate volume of extracellular fluid for re-suspending, and the cell density was controlled at 2-3×10^6/mL for use in IWB experiment. Extracellular fluid formulation (in mM): 140 NaCl, 5 KCl, 1 MgCl2, 10 HEPES, 0.5 EGTA, 10 Glucose (pH 7.4); intracellular fluid formulation (in mM): 140 CsCl, 10 HEPES, 5 EGTA, 0.1 CaCl2, 1 MgCl2 (pH 7.2). 28 mg/mL of amphotericin B was freshly prepared with DMSO on the day of experiment, and then final concentration of 0.1 mg/mL was prepared with intracellular fluid.
Population patch clamp (PPC) plate was used in IWB experiment. The entire detection process was automatically carried out by the instrument, that is, extracellular fluid was added into 384 wells of PPC plate, and after intracellular fluid was added under PPC plate (in plenum), 6 µL of cell fluid was added for sealing test, and finally the intracellular fluid in plenum was replaced with intracellular fluid containing amphotericin B to establish a whole-cell recording mode after perforating sealed cells. The sampling frequency for recording TPRA1 current was 10 kHz, the cells were clamped at 0 mV, the voltage stimulation command (channel protocol) was a ramp voltage from −100 mV to +100 mV for 300 ms. This voltage stimulation was applied every 10 s, mTRPA1 current was induced by 300 µM AITC.
Data recording and current amplitude measurement export were carried out by IWB software (version 2.5.3, Molecular Devices Corporation, Union City, CA). No statistics was recorded for holes with sealing impedance lower than 20 MΩ. The original current data was corrected by software for leak subtraction. TRPA1 current amplitude was measured at +100 mV. […] If IC50 value of HC030031 exceeded 3 times of the average IC50 value previously obtained on each plate, it would be re-tested. The dose-effect curve of compounds and IC50 were fitted and calculated by GraphPad Prism 5.02 (GraphPad Software, San Diego, CA).
Some compounds of the present invention were subjected to IC50 inhibition activity test using the IonWorks Barracuda (IWB) automated patch clamp detection method.

[2] = molecular target: T2, chemokine receptor CCR9 (Homo sapiens, UniProt P51686); experiment: CCR9 antagonistic activity, calcium flow (Fluo-4, FlexStation), CCL25 agonist; type: cell-based; settings: antagonistic mode, CCL25 150 nM; for inhibition at 100 µM: read-out: Inhibition rate (%) (100 μM)
T2 construct: expressed in transfected cells
T2 sequence (P51686 1-369): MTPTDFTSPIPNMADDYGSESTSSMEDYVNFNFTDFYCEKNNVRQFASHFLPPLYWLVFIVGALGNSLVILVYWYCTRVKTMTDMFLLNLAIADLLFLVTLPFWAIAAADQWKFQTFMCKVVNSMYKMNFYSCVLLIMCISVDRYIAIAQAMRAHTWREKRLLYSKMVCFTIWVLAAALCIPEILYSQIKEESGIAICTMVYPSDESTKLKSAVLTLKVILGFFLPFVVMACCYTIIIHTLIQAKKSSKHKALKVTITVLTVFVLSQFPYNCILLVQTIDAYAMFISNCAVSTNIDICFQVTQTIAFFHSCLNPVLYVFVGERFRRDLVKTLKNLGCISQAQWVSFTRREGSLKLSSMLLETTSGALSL
From the text: 2.1 Main reagents: DMEM culture medium (GIBCO); dimethyl sulfoxide (Sigma); FLUO-4, AM (Invitrogen) 2.2 Main instrument: Flexstation-3 (Molecular Devices) The test concentration gradient of the compound and replicates were set according to the requirement of testing ICSO. All test substances with 8 concentrations were set, with 3 replicates for each concentration. By establishing a cell line that cotransformed the receptor and G16, the receptor being activated can induce the activation of Gα16 protein, thereby activating phospholipase C (PLC) to produce IP3 and DAG. IP3 can bind to the IP3 receptor on the intracellular endoplasmic reticulum and mitochondria, leading to the release of intracellular calcium. Therefore, measuring changes in intracellular calcium can serve as a method for detecting the activation status of target receptor. Fluo-4/AM is a calcium fluorescent probe indicator used to measure calcium ion, as a non-polar lipophilic compound, under the action of cell lipase after entering cells, the AM group dissociates and releases Fluo-4; since Fluo-4 is a polar molecule, it is not easy to pass through lipid bilayers, allowing it to remain in the cell for a long time. Ultimately, the level of G protein activation can be reflected by measuring the excited fluorescence intensity. […] Cells stably expressing the target receptor/Ga16 were planted on a 96 well plate and cultured overnight. 2. The culture solution was removed from the well planted cells, then 40 μL/well of freshly prepared dye was added. The mixture was incubated at a constant temperature in a 37° C. incubator for 40 minutes. 3. The drug to be tested was diluted with calcium buffer and mixed well. 4. The dye was absorbed and discarded. After washed once with freshly prepared calcium buffer, 50 μL of calcium buffer that dissolved the drug to be tested was added for replacement. 5. The FlexStation II instrument was used for detection. Starting from the 15th second, […] dissolved with known agonist was automatically added by the instrument, and finally the fluorescence value at 525 nm was readed. The following formula was used to calculate the cell response rate (% Response) for each sample under each concentration. […] IC50 value was calculated using GraphPad Prism.

T1 sequence (Q8BLA8 whole entry): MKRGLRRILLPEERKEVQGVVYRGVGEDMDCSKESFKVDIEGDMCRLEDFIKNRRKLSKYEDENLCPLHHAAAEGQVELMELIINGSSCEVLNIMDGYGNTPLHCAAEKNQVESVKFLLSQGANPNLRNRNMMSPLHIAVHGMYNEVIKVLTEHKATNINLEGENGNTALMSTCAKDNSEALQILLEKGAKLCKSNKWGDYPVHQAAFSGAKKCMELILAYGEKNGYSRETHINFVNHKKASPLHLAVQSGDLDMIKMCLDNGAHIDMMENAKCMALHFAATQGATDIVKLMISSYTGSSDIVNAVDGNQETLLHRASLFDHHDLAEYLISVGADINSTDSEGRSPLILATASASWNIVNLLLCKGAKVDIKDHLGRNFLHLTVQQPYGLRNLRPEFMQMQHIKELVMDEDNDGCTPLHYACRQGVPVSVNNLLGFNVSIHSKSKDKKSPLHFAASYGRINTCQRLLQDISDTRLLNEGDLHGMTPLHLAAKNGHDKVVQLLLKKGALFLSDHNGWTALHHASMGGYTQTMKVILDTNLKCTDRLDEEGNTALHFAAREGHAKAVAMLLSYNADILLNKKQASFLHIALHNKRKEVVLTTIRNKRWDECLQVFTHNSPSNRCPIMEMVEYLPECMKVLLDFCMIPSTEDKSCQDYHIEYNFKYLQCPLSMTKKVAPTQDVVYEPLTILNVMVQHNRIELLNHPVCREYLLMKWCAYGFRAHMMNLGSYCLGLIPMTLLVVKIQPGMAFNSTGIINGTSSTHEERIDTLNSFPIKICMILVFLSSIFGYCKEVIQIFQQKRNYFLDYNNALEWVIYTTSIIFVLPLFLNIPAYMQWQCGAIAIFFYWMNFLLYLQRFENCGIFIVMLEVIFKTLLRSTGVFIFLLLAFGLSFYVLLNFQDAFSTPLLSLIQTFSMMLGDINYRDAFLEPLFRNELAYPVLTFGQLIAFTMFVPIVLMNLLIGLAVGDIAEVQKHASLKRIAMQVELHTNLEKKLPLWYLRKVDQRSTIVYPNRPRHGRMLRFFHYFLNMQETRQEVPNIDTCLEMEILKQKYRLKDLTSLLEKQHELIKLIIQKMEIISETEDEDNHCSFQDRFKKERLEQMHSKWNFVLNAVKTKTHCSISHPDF

Row | IC50 [1] | inhibition at 100 µM [2] | IC50 [2] | SMILES
1 | 1 to 5 µM | 35% | > 100 µM | CNCc1ccc(-c2ccc(C)o2)c(NS(=O)(=O)c2ccccc2)c1 [IA-35, N-(5-((methylamino)methyl)-2-(5-methylfuran-2-yl)phenyl)benzenesulfonamide]
2 | 1 to 5 µM | 5% | > 100 µM | CNCc1ccc(-c2ccco2)c(NS(=O)(=O)c2ccc(F)cc2F)c1 [IA-11, 2,4-Difluoro-N-(2-(furan-2-yl)-5-((methylamino)methyl)phenyl)benzenesulfonamide]
3 | < 1 µM | 15% | > 100 µM | NCc1ccc(-c2ccco2)c(NS(=O)(=O)c2ccccc2)c1 [ID-1, N-(5-(aminomethyl)-2-(furan-2-yl)phenyl)benzenesulfonamide]
4 | 1 to 5 µM | 0% | > 100 µM | CNCc1ccc(-c2ccco2)c(NS(=O)(=O)c2ccc3c(c2)CCO3)c1 [IA-15, N-(2-(furan-2-yl)-5-((methylamino)methyl)phenyl)-2,3-dihydrobenzofuran-5-sulfonamide]
5 | 1 to 5 µM | 22% | > 100 µM | CNCc1ccc(-c2ccoc2)c(NS(=O)(=O)c2ccsc2)c1 [IA-43, N-(2-(furan-3-yl)-5-((methylamino)methyl)phenyl)thiophene-3-sulfonamide]
6 | 1 to 5 µM | 12% | > 100 µM | CNCc1ccc(-c2ccoc2)c(NS(=O)(=O)c2cccs2)c1 [IA-44, N-(2-(furan-3-yl)-5-((methylamino)methyl)phenyl)thiophene-2-sulfonamide]
7 | 1 to 5 µM | 22% | > 100 µM | CNCc1ccc(-n2cccc2)c(NS(=O)(=O)c2ccccc2)c1 [IQ-1, N-(5-((methylamino)methyl)-2-(1H-pyrrole-1-yl)phenyl)benzenesulfonamide]
8 | 1 to 5 µM | 30% | > 100 µM | CNCc1ccc(-c2cccs2)c(NS(=O)(=O)c2ccc(F)cc2)c1 [IA-45, 4-Fluoro-N-(5-((methylamino)methyl)-2-(thiophene-2-yl)phenyl)benzenesulfonamide]
9 | < 1 µM | 10% | > 100 µM | CNCc1ccc(N(C)S(=O)(=O)c2ccsc2)c(-c2ccco2)c1 [IB, N-(2-(furan-2-yl)-4-((methylamino)methyl)phenyl)-N-methylthiophene-3-sulfonamide]
10 | 1 to 5 µM | 11% | > 100 µM | NCc1ccc(NS(=O)(=O)c2ccsc2)c(-c2cc[nH]n2)c1 [ID-7, N-(4-(aminomethyl)-2-(1H-pyrazole-3-yl)phenyl)thiophene-3-sulfonamide]
11 | 1 to 5 µM | 19% | > 100 µM | CNCc1ccc(-c2ccsc2)c(NS(=O)(=O)c2ccccc2)c1 [IA-49, N-(2-(thiophene-3-yl)-5-((methylamino)methyl)phenyl)benzenesulfonamide]
12 | < 1 µM | 22% | > 100 µM | CN(c1ccc(CN)cc1-c1ccco1)S(=O)(=O)c1ccsc1 [IF, N-(4-(aminomethyl)-2-(furan-2-yl)phenyl)-N-methylthiophene-3-sulfonamide]
13 | 1 to 5 µM | 30% | > 100 µM | O=S(=O)(Nc1ccc(CN2CC(F)C2)cc1-c1ccco1)c1ccsc1 [IJ-2, N-(4-((3-fluoroazetidin-1-yl)methyl)-2-(furan-2-yl)phenyl)thiophene-3-sulfonamide]
14 | 1 to 5 µM | 14% | > 100 µM | CNCc1ccc(-c2ccco2)c(NS(=O)(=O)c2ccc(F)cc2)c1 [IA-1, 4-Fluoro-N-(2-(furan-2-yl)-5-((methylamino)methyl)phenyl)benzenesulfonamide]
15 | 1 to 5 µM | 25% | > 100 µM | CNCc1ccc(-c2ccco2)c(NS(=O)(=O)c2ccsc2)c1 [IA-21, N-(2-(furan-2-yl)-5-((methylamino)methyl)phenyl)thiophene-3-sulfonamide]
16 | 1 to 5 µM |  |  | CNCc1ccc(-c2cc[nH]n2)c(NS(=O)(=O)c2ccccc2)c1 [IA-54, N-(5-((methylamino)methyl)-2-(1H-pyrazol-5-yl)phenyl)benzenesulfonamide]
17 | 1 to 5 µM |  |  | O=S(=O)(Nc1cc(C2CCCN2)ccc1-c1ccco1)c1ccccc1 (centres unmarked) [IW, N-(2-(furan-2-yl)-5-(pyrrolidin-2-yl)phenyl)benzenesulfonamide]
18 | 5 to 10 µM |  |  | CNCc1ccc(-c2ncc(C)s2)c(NS(=O)(=O)c2ccccc2)c1 [IA-59, N-(5-((methylamino)methyl)-2-(5-methylthiazol-2-yl)phenyl)benzenesulfonamide]
19 | 10 to 20 µM |  |  | CNCc1ccc(-c2ccco2)c(NS(=O)(=O)c2ccccc2OC(F)(F)F)c1 [IA-8, 2-Trifluoromethoxy-N-(2-(furan-2-yl)-5-((methylamino)methyl)phenyl)benzenesulfonamide]
20 | 20 to 50 µM |  |  | CNCc1ccc(-c2c(C)nn(C)c2C)c(NS(=O)(=O)c2ccccc2)c1 [IA-57, N-(5-((methylamino)methyl)-2-(1,3,5-trimethyl-1H-pyrazole-4-yl)phenyl) benzenesulfonamide]
21 | 1 to 5 µM |  |  | CNCc1ccc(-c2ccco2)c(NS(=O)(=O)c2ccc(C)cc2)c1 [IA-10, 4-Methyl-N-(2-(furan-2-yl)-5-((methylamino)methyl)phenyl)benzenesulfonamide]
22 | 5 to 10 µM |  |  | CNCc1ccc(-c2ccco2)c(NS(=O)(=O)c2c(F)cccc2F)c1 [IA-12, 2,6-Difluoro-N-(2-(furan-2-yl)-5-((methylamino)methyl)phenyl)benzenesulfonamide]
23 | 5 to 10 µM |  |  | CNCc1ccc(-c2ccoc2)c(NS(=O)(=O)c2ccc(F)cc2)c1 [IA-41, 4-Fluoro-N-(2-(furan-3-yl)-5-((methylamino)methyl)phenyl)benzenesulfonamide]

Row | SMILES | IC50 [1] | inhibition at 100 µM [2] | IC50 [2]
24 | NCCc1ccc(NS(=O)(=O)c2ccsc2)c(-c2ccco2)c1 [IR, N-(4-(2-aminoethyl)-2-(furan-2-yl)phenyl)thiophene-3-sulfonamide] | 1 to 5 µM | 25% | > 100 µM
